Reference: PubChem BioAssay AID1996
In brackets after ≈: the same amount, converted by molar mass.

Details: buffer; pH 7.4; 200.0 µM

Row | SMILES | solubility kinetic
1 | CC(C)(C)C(=O)N1CCN(c2ccnc3cc(Cl)ccc23)CC1 | 45 µg/mL (≈ 136 µM)
2 | CN1CCN(CCC(=O)Nc2ccccc2)CC1 | > 37.1 µg/mL
3 | CC(=O)NC(c1ccc(C)cc1)c1cc(Cl)c2cccnc2c1O (stereo unspecified) | < 0.4 µg/mL
4 | CCc1ccc(NC2=NCCCS2)cc1 | > 33 µg/mL
5 | Cc1ccc(C)c(OC(=O)c2cccnc2)c1 | 16.9 µg/mL (≈ 74.4 µM)
6 | CCC1=NC(c2ccc(Br)cc2)N(O)C1(C)C (stereo unspecified) | 41 µg/mL (≈ 138 µM)
7 | Cc1cc(C)nc(SCc2ccc(Br)cc2)n1 | 1.5 µg/mL (≈ 4.85 µM)
8 | O=C(c1ccncc1)N1CCc2ccccc2C1 | > 35.7 µg/mL
9 | COc1cc(/C=C/C(=O)O)cc(S(=O)(=O)Nc2cc(C(F)(F)F)ccc2N2CCOCC2)c1OC | > 77.5 µg/mL
10 | Cc1ccc2c(c1)N(CC(=O)NC1CCCC1)C(=O)CO2 | > 43.3 µg/mL
11 | Cc1c(/C=C2\NC(=O)NC2=O)c2ccccc2n1C | 36.9 µg/mL (≈ 145 µM)
12 | O=C(NC(Cc1ccc(O)cc1)C(=O)O)c1ccco1 (stereo unspecified) | > 41.3 µg/mL
13 | O=C(c1ccccc1)c1ccc(-n2ccnc2)c([N+](=O)[O-])c1 | 34.4 µg/mL (≈ 117 µM)
14 | COC(=O)c1cc2ccccc2n1Cc1ccc(Cl)nc1 | 1.5 µg/mL (≈ 4.99 µM)
15 | CCOc1ncccc1C(=O)OC(C)C(=O)Nc1ccc(CC)cc1 (stereo unspecified) | 7.1 µg/mL (≈ 20.7 µM)
16 | COc1ccc(NC(=O)C2(c3cccs3)CCOCC2)cc1 | 36.4 µg/mL (≈ 115 µM)
17 | COc1ccc(NC(=O)NCCCCc2ccccc2)c(OC)c1 | 0.7 µg/mL (≈ 2.13 µM)
18 | COC(=O)c1ccccc1NC(=O)Cn1cnc([N+](=O)[O-])c1 | > 45.6 µg/mL
19 | CCc1ccccc1NC(=O)Nc1cnccn1 | 6.1 µg/mL (≈ 25.2 µM)
20 | Cc1c(Cl)cccc1NC(=O)CSC(N)=O | 15.6 µg/mL (≈ 60.3 µM)
21 | CC1CCC(C(C)C)C(OCC(O)CNC(C)(C)C)C1.Cl (stereo unspecified) | > 48.3 µg/mL
22 | Cc1oc(-c2cccc(C(F)(F)F)c2)nc1CN1CCOCC1 | 44.3 µg/mL (≈ 136 µM)
23 | Cc1cc(Cl)nc(-c2ccccc2O)n1 | < 0.2 µg/mL
24 | COC(=O)c1cc(N2CCNCC2)nc2ccccc12.Cl | 39.9 µg/mL
25 | Cl.O=C(NCCN1CCCC1)c1ccc(Cl)cc1Cl | > 48.5 µg/mL

Row | SMILES | solubility kinetic
26 | Nc1cccnc1Sc1ccccc1 | 28 µg/mL (≈ 138 µM)
27 | O=C(Nc1cccc(S(=O)(=O)N2CCCCCC2)c1)c1cncc(Br)c1 | 13.1 µg/mL (≈ 29.9 µM)
28 | CSc1ncc(C(=O)NCCCc2ccccc2)c(C)n1 | 43 µg/mL (≈ 143 µM)
29 | COc1ccc(/C=C/c2cc(C(F)(F)F)on2)cc1 | 1.3 µg/mL (≈ 4.83 µM)
30 | Cl.N=c1ccccn1Cc1ccccc1 | > 33.1 µg/mL
31 | O=C(O)c1cc(C(=O)O)cc(N2C(=O)CSC2=S)c1 | > 44.6 µg/mL
32 | COc1cccc(C(=O)NC(C)CCc2ccccc2)c1 (stereo unspecified) | 36 µg/mL (≈ 127 µM)
33 | CC1CN(C(=O)Nc2ccc(Br)cc2Cl)CC(C)O1 (stereo unspecified) | 30.3 µg/mL (≈ 87.2 µM)
34 | O=[N+]([O-])c1ccccc1O[C@@H]1O[C@H](CO)[C@H](O)[C@H](O)[C@H]1O | > 45.2 µg/mL
35 | COc1ccccc1CNCC(=O)Nc1cc(S(=O)(=O)N2CCCCC2)ccc1C.O=C(O)C(=O)O | 34.3 µg/mL
36 | Cc1cccc(NC(=O)CSc2cccc3cccnc23)c1 | 21.3 µg/mL (≈ 69.1 µM)
37 | COc1ccc(OC)c2sc(N(CCN(C)C)C(=O)c3ccc4ccccc4c3)nc12.Cl | 8.6 µg/mL
38 | CCC(=O)Nc1ccc2c(c1)nc(CN1CCCCC1)n2C | > 45.1 µg/mL
39 | COC(=O)c1ccccc1CC1SC(N)=NC1=O (stereo unspecified) | > 39.6 µg/mL
40 | CN1CC2([N+](=O)[O-])CC=C(Cl)C([N+](=O)[O-])(C1)C2 (stereo unspecified) | > 39.3 µg/mL
41 | O=C1C(Nc2ccccc2)=C2CCCC=C2N1c1ccccc1 | 1.8 µg/mL (≈ 5.95 µM)
42 | Cc1cccc2c1NC(=O)C2(O)N1CCCC(C)C1 (stereo unspecified) | > 39.1 µg/mL
43 | CCCCCCn1c(=O)[nH]c2c(c1=O)CCC2 | > 35.4 µg/mL
44 | CC(C)NC(=S)NCc1cccs1 | > 32.2 µg/mL
45 | COc1ccc(Cn2cc(F)c(=O)n(C)c2=O)cc1[N+](=O)[O-] | 42.8 µg/mL (≈ 138 µM)
46 | O=c1[nH]n2cc(-n3cc([N+](=O)[O-])cn3)cnc2c1Br | > 48.8 µg/mL
47 | CC(C)(C)NC(=O)c1ccccc1NC(=O)c1ccc2c(c1)OCO2 | 5.3 µg/mL (≈ 15.6 µM)
48 | NC(=O)c1ccc(NC(=O)COC(=O)C2COc3ccccc3O2)cc1 (stereo unspecified) | > 53.5 µg/mL
49 | COc1cc(CCC(=O)OCC(=O)N2CC(=O)Nc3ccccc32)cc(OC)c1OC | > 64.3 µg/mL
50 | S=c1[nH]c2cc3c(cc2[nH]1)OCCO3 | 19.7 µg/mL (≈ 94.6 µM)

Row | SMILES | solubility kinetic
51 | CC(C)C(=O)NCC(c1ccc2c(c1)OCO2)N1CCOCC1 (stereo unspecified) | > 48.1 µg/mL
52 | COc1ccc(CNC(=O)c2c(C)cc(=O)oc2C)cc1 | > 43.1 µg/mL
53 | O=C(Nc1cccc(Br)c1)c1cc(=O)c2ccccc2o1 | < 0.7 µg/mL
54 | FC(F)(F)c1ccc(-n2cnc3ccccc32)nc1 | 13.5 µg/mL (≈ 51.3 µM)
55 | COCC(C)NC(=O)c1cc2cc(OC)ccc2[nH]1 (stereo unspecified) | 29.7 µg/mL (≈ 113 µM)
56 | COc1ccc2nc(NC(=O)c3ccco3)sc2c1 | 7.4 µg/mL (≈ 27 µM)
57 | CCC(CC)NC(=O)Cc1ccc(F)cc1 | > 33.5 µg/mL
58 | OC[C@H]1O[C@@H](n2cnc3c(Nc4ccccc4)ncnc32)[C@H](O)[C@@H]1O | > 51.5 µg/mL
59 | Cc1ccc(O)c(C(=O)c2cnc(/N=C(\N)N(C)C)nc2)c1 | 41.1 µg/mL (≈ 137 µM)
60 | CCN(CC(=O)N1CCCC1)S(=O)(=O)c1ccc(OC)cc1 | 44.7 µg/mL (≈ 137 µM)
61 | N#Cc1c(Nc2ccccc2Cl)s[nH]c1=O | > 37.8 µg/mL
62 | COc1ccccc1C(=O)OCc1ccc2sc(C)nc2c1 | 3.1 µg/mL (≈ 9.89 µM)
63 | Cc1ccc(NC(=O)c2ccccn2)c(Br)c1 | < 0.3 µg/mL
64 | CCN(CC)c1ccc2c(C)c(Cl)c(=O)oc2c1 | 6.3 µg/mL (≈ 23.7 µM)
65 | C=CCn1c(CCNC(=O)c2ccco2)nc2ccccc21 | > 44.3 µg/mL
66 | COc1ccc(S(=O)(=O)N2CCN(c3ccccn3)CC2)c(OC)c1 | 52.1 µg/mL (≈ 143 µM)
67 | O=C(Nc1cccc(C(=O)O)c1)Nc1cccc2ccccc12 | > 45.9 µg/mL
68 | Cc1ccc(N2C(=O)C(F)(F)C2c2ccccc2)cc1 (stereo unspecified) | 1 µg/mL (≈ 3.66 µM)
69 | COc1cccc(NC(=O)c2nc(S(C)(=O)=O)ncc2Cl)c1 | 33.6 µg/mL (≈ 98.3 µM)
70 | Cc1ccc(S(=O)(=O)N2CCOCC2)cc1C(=O)N1CCN(c2ccc(C(F)(F)F)cn2)CC1 | 68.8 µg/mL (≈ 138 µM)
71 | O=C(Nc1cccnc1Cl)c1cc(-c2ccc(F)cc2)on1 | < 0.2 µg/mL
72 | O=C(NCC1CCCO1)c1ccc(NC(=O)c2ccc(Br)cc2)cc1 (stereo unspecified) | 1.2 µg/mL (≈ 2.98 µM)
73 | O=S(=O)(Nc1ccon1)c1ccc(Br)cc1 | 32.2 µg/mL (≈ 106 µM)
74 | Cl.O=C(O)c1ccc(Nc2ncnc3ccccc23)cc1 | > 45.3 µg/mL
75 | O=S(=O)(Nc1ccccc1O)c1ccc(-c2ccccc2)cc1 | 12.3 µg/mL (≈ 37.8 µM)

Row | SMILES | solubility kinetic
76 | CN1/C(=C/C=C(C#N)C#N)C=Cc2ccccc21 | 1.1 µg/mL (≈ 4.72 µM)
77 | O=C(c1ccccc1)C1CN(Cc2ccccc2)CCC1(O)c1ccccc1 (stereo unspecified) | 10.4 µg/mL (≈ 28 µM)
78 | CCc1onc(C)c1C(=O)O | > 23.3 µg/mL
79 | CC1CC(CCN)(c2ccccc2)C(C)CN1C.Cl (stereo unspecified) | > 47.9 µg/mL
80 | Cc1noc(C)c1C(=O)OCC(=O)C12CC3CC(CC(C3)C1)C2 | < 0.7 µg/mL
81 | COc1ccc(Nc2ccc([N+](=O)[O-])cn2)cc1 | 3 µg/mL (≈ 12.2 µM)
82 | Nc1cc(=O)[nH]c(SCc2cccc3ccccc23)n1 | 4 µg/mL (≈ 14.1 µM)
83 | N#Cc1ccc(C(=O)OCC(=O)NC2CCCC2)cc1 | 39 µg/mL (≈ 143 µM)
84 | Cc1ccc(O)c(NC(=S)NC(=O)C(C)C)c1 | > 37.8 µg/mL
85 | O=C(NCC1CC1)Nc1cccs1 | > 29.4 µg/mL
86 | CNc1nc2c(C)cccn2c(=O)c1C=Nc1ccc(OC)cc1 | 0.9 µg/mL (≈ 2.79 µM)
87 | Cc1c[n+](CC(=O)c2ccccc2)c(C)cn1.[Br-] | 27 µg/mL
88 | O=C(CN1C(=O)COc2ccccc21)NCCCN1CCCC1 | > 47.6 µg/mL
89 | COc1ccc(-c2nc(C)ncc2-c2ccc(Cl)cc2)c(O)c1 | < 0.3 µg/mL
90 | O=C(NC(Cc1ccccc1)C(=O)O)c1cccnc1Cl (stereo unspecified) | 35 µg/mL (≈ 115 µM)
91 | Nc1ccc2nc(COc3ccccc3)[nH]c2c1 | 12.4 µg/mL (≈ 51.8 µM)
92 | CC1CCCN(Cc2ccc(OCc3ccccc3)cc2)C1 (stereo unspecified) | 31.5 µg/mL (≈ 107 µM)
93 | O=C(Cn1cc(C(F)(F)F)ccc1=O)Nc1ccc2c(c1)OCCO2 | 25.2 µg/mL (≈ 71.1 µM)
94 | CC(=O)N(C)c1ccc(NC(=O)Cc2cccc3ccccc23)cc1 | 3.9 µg/mL (≈ 11.7 µM)
95 | COc1ccc(CCNC(=O)c2cc3ccccc3oc2=O)cc1 | < 0.7 µg/mL
96 | O=C(COC(=O)C1CCC1)NCc1ccc(Cl)cc1Cl | > 47.4 µg/mL
97 | O=C(/C=C/c1ccc([N+](=O)[O-])cc1)NCCOc1ccc(F)cc1 | 4 µg/mL (≈ 12.1 µM)
98 | COC(=O)CC1C(=O)NC2CCCCC2N1C(=O)CCl (stereo unspecified) | > 45.4 µg/mL
99 | O=C1CC(c2ccccc2)CN1C(=O)c1cccnc1 (stereo unspecified) | 34.8 µg/mL (≈ 131 µM)
100 | CC(=O)c1sc(-c2ccccc2)cc1NS(=O)(=O)c1ccc(C)cc1 | 1.1 µg/mL (≈ 2.96 µM)

Row | SMILES | solubility kinetic
101 | Fc1ccc(OCc2cc(-c3ccccc3)no2)cc1 | < 0.6 µg/mL
102 | C=CCn1c(O)c(C(C)=Nc2ccc(C(=O)O)cc2)c(=O)[nH]c1=O | > 49.4 µg/mL
103 | Cc1ccc(S(=O)(=O)N2CC=C(C(=O)NCCC(C)C)CC2)cc1 | 41.7 µg/mL (≈ 119 µM)
104 | Cc1ccc(C(=O)NCC(c2ccc(F)cc2)N2CCOCC2)s1 (stereo unspecified) | > 52.3 µg/mL
105 | CC(=O)Nc1ccc(Sc2ccccc2C(=O)O)c(C(=O)O)c1 | 42.3 µg/mL (≈ 128 µM)
106 | COC(CNC(=O)c1ccc2nc3ccccc3c(=O)n2c1)OC | 49 µg/mL (≈ 150 µM)
107 | CCOc1ccccc1NC(=O)COC(=O)c1nc2nccc(C)n2n1 | > 53.3 µg/mL
108 | S=c1[nH]nc(Nc2ccccc2)s1 | > 31.4 µg/mL
109 | CC(C)Oc1ccc(C(=O)Nc2nc3ccccc3[nH]2)cc1 | 1.3 µg/mL (≈ 4.4 µM)
110 | C=CC[n+]1c(C)csc1Nc1cccc(Br)c1.[Br-] | 3.3 µg/mL
111 | COc1cc(S(=O)(=O)N2CCOCC2)ccc1NC(=O)COC(=O)c1cc(OC)c(OC)c(OC)c1 | 4.5 µg/mL (≈ 8.58 µM)
112 | CC(=O)c1c(C)[nH]c(C(=O)Nc2ccccc2Cl)c1C | 2.7 µg/mL (≈ 9.29 µM)
113 | O=C(COC(=O)/C=C/c1cccc(F)c1)NC(=O)NCc1ccccc1 | 2.8 µg/mL (≈ 7.86 µM)
114 | CS/C(N)=N/C(=S)Nc1cccc(Cl)c1 | 31.4 µg/mL (≈ 121 µM)
115 | COCCNC(=S)N1CCCC(CO)C1 (stereo unspecified) | > 34.9 µg/mL
116 | Cc1cc(OCC(O)CN2CCCC2)cc(C)c1Cl.Cl (stereo unspecified) | 42.3 µg/mL
117 | COC(=O)c1cnn2c1C(=O)N(Cc1cccs1)CC2 | > 43.7 µg/mL
118 | CC(=O)c1c(C)[nH]c(C(=O)Nc2ccc(F)c(F)c2F)c1C | 1.8 µg/mL (≈ 5.8 µM)
119 | Cc1ccnc(NC(=O)c2ccc(C(=O)c3ccccc3)cc2)c1 | 25.8 µg/mL (≈ 81.6 µM)
120 | Cn1c(/C=C/c2ccc(Br)cc2)nc2ccccc2c1=O | < 0.4 µg/mL
121 | CC(C)(C)C(=O)Nc1ccc(F)cc1[N+](=O)[O-] | 13.8 µg/mL (≈ 57.4 µM)
